Data reported in patent publication US7884117B2, “Carbonylamino pyrrolopyrazoles, potent kinase inhibitors” (Pfizer Inc., priority 2005, dated 2011).
Where “and” joins values, the source holds several entries; their conditions need not be identical. Identical values can stand only once. Entries after “also recorded” stand apart in the source; their conditions may differ.

Experiments:
[1] = biological target: T1, PAK4 Kinase domain (PAK4 KD) (Homo sapiens, UniProt O96013); assay: PAK4 kinase domain enzymatic assay (PK/LDH-coupled, Ki); format: biochemical; conditions: PAK4 Kinase Domain
T1 construct: Cloning, expression, and purification of recombinant PAK4 Kinase domain (PAK4 KD); His tag (pET28a(+)/pET24a(+), Ni-NTA purification) (N, cleaved yes); GST (pGST4.5, glutathione column) (N, cleaved yes); made in house; host or cells: E. coli BL21(DE3)

[2] = biological target: T2, PAK4 kinase activity in whole cells (TR-293-KDG, modified HEK 293) (Homo sapiens, UniProt O96013); assay: PAK4 cellular assay: sandwich ELISA of PAK4-dependent phosphorylation of GEF-H1b in TR-293-KDG cells; format: cell-based; conditions: 3-hour exposure
T2 construct: engineered to overexpress both GEF-H1b and the kinase domain (KD) of PAK4; expressed in transfected cells; host or cells: TR-293-KDG (modified HEK 293, Trex system, Invitrogen)
Description: A sandwich ELISA method was used to measure the PAK4 kinase activity in whole cells. The level of PAK4-dependent phosphorylation of GEF-H1b can be determined by monitoring the binding of a phosphospecific antibody to GEF-H1b. […] The KD of PAK4 is inducible in this cell line by tetracycline (Trex system, Invitrogen). […] To establish a phosphorylation event on GEF-HL, cells are induced with doxycycline to express the PAK4 KD. […] Candidate substance effect is measured as the ability to block this phosphorylation event.
ELISA plate was prepared by pre-coating the plates with a capture antibody (α-HA-tag mouse monoclonal antibody), blocked with BSA, and washed in 0.1% tween 20 in tris-buffered saline (TBST). […] Cells were then lysed with a modified RIPA buffer supplemented with protease inhibitors. […] Between all subsequent steps plates were washed 4 times with TBST. Detection antibody (recognizing the phospho-specific eptitope on GEF-H1b) was added for 1 hour, followed by addition of an enzyme linked goat α-rabbit secondary antibody for 45 minutes. […] EC50 values were calculated by sigmoid curve fitting using a four-parameter analysis.

[3] = test system: HCT116 human colorectal carcinoma tumor xenografts; assay: Tumor growth inhibition and tumor growth delay of HCT116 xenografts in athymic mice; format: in vivo; conditions: for Tumor growth inhibition (TGI) % TGImax d39 / Tumor growth delay T-C1250 mm3: oral gavage; for Tumor growth inhibition (TGI) % TGImax d39: day 39, vs vehicle; for Tumor growth delay T-C1250 mm3: evaluation size 1250 mm3
Description: Material and preparation: The HCT116 cell line was obtained from American Type Culture Collection (ATCC, Bethesda, Md.). Cells were grown as monolayers in McCoy's media each supplemented with 10% FBS (each from Life Technologies, Inc., Bethesda, Md.) and maintained at 37° C. in a humidified atmosphere at 5% CO2. Tumor cells for implantation into athymic mice were harvested near confluence by incubation with 0.05% Trypsin-EDTA. Cells were pelleted at 450×g for 5-10 minutes and the cell pellets were re-suspended in serum-free McCoy's medium supplemented with 50% matrigel. Tumor cells (1×10^6 cells/animal) were implanted s.c. into the hindflank region of each mouse on day 0 and allowed to grow to the designated size prior to the administration of compound for each experiment.
Tumor growth inhibition: Treatment was initiated when tumors were approximately 200 mm3 in size. Compound of Example 2 or vehicle (methyl cellulose, MC) was administered as an oral gavage daily or every other day at 10 mL/kg. Tumors were measured using Vernier calipers, and tumor volumes were calculated utilizing the formula length×width2×0.4. Tumor volume was measured on the indicated days, with the median tumor volume indicated for each group of 12 animals; median±SEM. At the end of the study, the maximum percent tumor growth inhibition was calculated as 100×(tumor volumefinal−tumor volumeinitial) for Compound 1f Example 2-treated group/(tumor volumefinal−tumor volumeinitial) for vehicle group on day 39 and tumor growth delay was calculated as median […] when median tumor volume reached 1250 mm^3.
Tumor growth delay: Treatment with Compound of Example 2 began on day 11 when tumors reached a volume of ˜200 mm^3 and continued for 28 days until the control tumors reached evaluation size (1250 mm^3). Tumor measurement continued until treated tumors reached evaluation size (1250 mm^3) in order to assess tumor growth delay. Compound of Example 2 was administered to tumor-bearing mice by oral gavage as a solution in MC in 10 mL/kg volume and compared with vehicle alone administered in the same volume.

T2 sequence (O96013 321-572 limits assumed): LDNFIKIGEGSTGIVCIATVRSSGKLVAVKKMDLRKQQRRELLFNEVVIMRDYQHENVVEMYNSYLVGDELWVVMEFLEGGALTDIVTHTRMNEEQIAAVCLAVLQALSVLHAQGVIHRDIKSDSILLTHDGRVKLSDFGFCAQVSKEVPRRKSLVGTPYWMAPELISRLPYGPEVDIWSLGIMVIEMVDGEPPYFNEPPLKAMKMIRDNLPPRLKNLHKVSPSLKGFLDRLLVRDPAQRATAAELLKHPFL
T1 sequence (O96013 321-572 limits assumed): as above

Ki [1] [nM]	EC50 [2] [nM]	Compound	Tumor growth inhibition (TGI) % TGImax d39 ([3]; 50 mg/kg QD) [%]	Tumor growth delay T-C1250 mm3 ([3]; 50 mg/kg QD) [days]	Tumor growth inhibition (TGI) % TGImax d39 ([3]; 75 mg/Kg/QOD)	Tumor growth delay T-C1250 mm3 ([3]; 75 mg/Kg/QOD) [days]	in vivo tumor growth inhibition/delay (in words) ([3]; HCT116 xenografts in athymic mice, oral)	general health and body weight of treated mice ([3]; throughout the 28 day treatment cycle, oral)
16.7	9.7	CN(C)C[C@@H](OC(=O)N1Cc2c(NC(=O)c3ccc(F)cc3)n[nH]c2C1(C)C)c1ccccc1 [Example 2, (1S)-2-(dimethylamino)-1-phenylethyl 3-[(4-fluorobenzoyl)amino]-6,6-dimethyl-4,6-dihydropyrrolo[3,4-c]pyrazole-5(1H)-carboxylate]	50	12.2	37% and 36.6%	9.8	showed in vivo tumor growth inhibition; also recorded: inhibited/delayed growth	generally appeared healthy and continued to gain weight
108	178	CC1(C)c2[nH]nc(NC(=O)c3cccs3)c2CN1C(=O)N[C@H](CO)c1ccccc1 [Example 100, N-[(1S)-2-hydroxy-1-phenylethyl]-6,6-dimethyl-3-[(2-thienylcarbonyl)amino]-4,6-dihydropyrrolo[3,4-c]pyrazole-5(1H)-carboxamide]	–	–	–	–	–	–
89	9	CN(C)C[C@@H](NC(=O)N1Cc2c(NC(=O)c3nc4ccccc4s3)n[nH]c2C1(C)C)c1ccccc1 [Example 104, (S)-N-(5-((2-(dimethylamino)-1-phenylethyl)carbamoyl)-6,6-dimethyl-1,4,5,6-tetrahydropyrrolo[3,4-c]pyrazol-3-yl)benzo[d]thiazole-2-carboxamide]	–	–	–	–	–	–
212	50	COC(C)(C)C(=O)Nc1n[nH]c2c1CN(C(=O)O[C@H](CN(C)C)c1ccccc1)C2(C)C [Example 116, (S)-2-(dimethylamino)-1-phenylethyl 3-(2-methoxy-2-methylpropanamido)-6,6-dimethylpyrrolo[3,4-c]pyrazole-5(1H,4H, 6H)-carboxylate]	–	–	–	–	–	–
357	8.8	CO[C@H](C)C(=O)Nc1n[nH]c2c1CN(C(=O)O[C@H](CN(C)C)c1ccccc1)C2(C)C [Example 117, (S)-2-(dimethylamino)-1-phenylethyl 3-((R)-2-methoxypropanamido)-6,6-dimethylpyrrolo[3,4-c]pyrazole-5(1H,4H,6H)-carboxylate]	–	–	–	–	–	–
260	52	CN(C)C[C@@H](OC(=O)N1Cc2c(NC(=O)C3CCOC3)n[nH]c2C1(C)C)c1ccccc1 (stereo partly drawn) [Example 119, (S)-2-(dimethylamino)-1-phenylethyl 6,6-dimethyl-3-(tetrahydrofuran-3-carboxamido)pyrrolo[3,4-c]pyrazole-5(1H,4H,6H)-carboxylate]	–	–	–	–	–	–
16.2	124	CNC[C@@H](OC(=O)N1Cc2c(NC(=O)c3ccc(F)cc3)n[nH]c2C1(C)C)c1ccccc1 [Example 121, (S)-2-(methylamino)-1-phenylethyl 3-(4-fluorobenzamido)-6,6-dimethylpyrrolo[3,4-c]pyrazole-5(1H,4H,6H)-carboxylate]	–	–	–	–	–	–
